Laboratory results taken from US9233116B2, “Composition containing iridoids and uses thereof” (XUANWU HOSPITAL OF CAPITAL MEDICAL UNIVERSITY, priority 2010, dated 2016).

Columns and labels:
[1] = tested on: experimental autoimmune encephalomyelitis (EAE) mice model; experiment: Nervous function score in EAE mice model; assay type: in vivo, C57BL/6J mice; conditions: peak of attack, positive control drug, dose not given
Procedure: (§1) Preparation of mice model and administration: experimental autoimmune encephalomyelitis (EAE) mice model is an important tool for studying various human nervous system demyelinating diseases. In the present experiment, the preparation of EAE mice model was performed by immunizing female C57BL/6J mice with myelin sheath oligodendroglial cell surface glycoprotein MOG35-55. That is, the mice were subcutaneously injected at dorsal part of spinal column with 0.2 mL of MOG35-55 antigen elixir, and 0.2 ml of bordetella pertussis solution was intraperitoneally injected at the time of immunization injection and 48 h thereafter, respectively. The composition of morroniside and loganin was intragastrically administered after the last injection of bordetella pertussis solution, for consecutive 3 weeks.
Nervous function test method: the ethological changes of mice were observed by two experimenters every day using blind method. Scoring standard: 0 score, absence of symptom; 1 score, decrease of tail tension, evident slight gait awkward; 2 score, disappearance of tail tension, moderate gait abnormal, deficient in maintaining gesture; 3 score, limb strength weak; 4 score, limb paralysis; 5 score, near death or died.

[2] = Body weight drop in EAE mice model; assay type: in vivo, C57BL/6J mice; conditions: peak of attack, positive control drug, dose not given
Procedure: as §1
Experimental method: the methods for modeling and administration were the same of Experiment 1. The body weight changes of mice were recorded every day.

[3] = tested on: myelin sheath of spinal cord in EAE model mice; experiment: Myelinoclasis of spinal cord in EAE mice model (LFB staining); assay type: in vivo; conditions: day 29, positive control drug, dose not given
Procedure: as §1
Experimental method: the mice were anesthetized with 10% chloral hydrate on the 29th day of experiment, fixed by perfusion of 4% paraformaldehyde, myeloid tissues were taken for making paraffin sections, section thickness 5 μm. Stained with LFB, observed under microscope, and scored according to the following standard: 0 score, absence of myelinoclasis; 1 score, one small range of myelinoclasis; 2 score, 2 or 3 small ranges of myelinoclasis; 3 score, 1 to 2 large ranges of myelinoclasis; 4 score, large ranges of myelinoclasis accumulatively existing in 20% or more of white matter regions.

[4] = tested on: spinal cord tissues of EAE mice model; experiment: Inflammatory cell infiltration in spinal cord tissues of EAE mice model (HE staining); assay type: in vivo; conditions: day 29, positive control drug, dose not given
Procedure: as §1, with “The composition of morroniside and loganin was intragastrically administered after the last injection of bordetella pertussis solution, for consecutive 3 weeks.” left out
Experimental method: the mice were anesthetized with 10% chloral hydrate on the 29th day of experiment, fixed by perfusion of 4% paraformaldehyde, spinal cord tissues were taken for making paraffin sections, section thickness 5 μm. Stained with HE, observed under microscope, and scored according to the following standard: 0 score, absence of cell infiltration; 1 score, spinal meninge cell infiltration; 2 score, 1 to 4 small ranges of cell infiltration around vessels; 3 score, 5 or more small ranges of cell infiltration around vessels, or one or more accumulatively substantial large range of cell infiltration; 4 score, a large number of cell infiltration ranges accumulatively existing in 20% or more of white matter regions.

IL-1 = experiment: Serum IL-1 content in EAE mice model (ELISA); assay type: in vivo; conditions: serum of EAE mice; positive control drug, dose not given
Procedure: as §1
(§2) Experimental method: mice were anesthetized with pentobarbital sodium, blood sample was taken from abdominal aorta, stood at room temperature for 2 h, centrifuged at 3000 rpm for 20 min, and supernatant was taken, stored at −80° C. for use. The operation was performed strictly according to the steps of specification of ELISA kit. Optical density was measured with ELIASA at 450 nm. The corresponding contents of IL-1 and IL-6 were calculated with the measured OD values on standard curve.

IL-6 = experiment: Serum IL-6 content in EAE mice model (ELISA); assay type: in vivo; conditions: serum of EAE mice; positive control drug, dose not given
Procedure: as §1, §2

[5] = tested on: CNPase (marker protein of mature oligodendroglial cells); experiment: CNPase content in spinal cord of EAE model mice (Western blot); assay type: in vivo; conditions: positive control drug, dose not given
Procedure: as §1
Experimental method: the mice were anesthetized and sacrificed, fresh spinal cord was taken on ice, total protein was extracted by clearage on ice, to prepare Western blot sample, added with CNPase primary antibody and incubated, added with corresponding secondary antibody, ECL colorated, Kodak film exposed. Pictures were analyzed with Image J software and standardized with actin.

[6] = tested on: experimental autoimmune encephalomyelitis (EAE) rats model; experiment: Nervous function damage in EAE rats model; assay type: in vivo, Lewis rats; conditions: peak of attack, positive control drug, dose not given
Procedure: (§3) Preparation of rat model and administration: in this experiment, the preparation of EAE rat model was performed by multipoint immunizing female Lewis rats subcutaneously at tail root with a homogenate of spinal cord and cerebral gray matter of Guinea pig as well as complete Freund's adjuvant after emulsification. They were intragastrically administered with a composition of morroniside and loganin for 3 weeks.
Nervous function test method: the ethological changes of rats were observed by two experimenters using blind method every day. Scoring standard: 0 score, absence of symptom; 1 score, decrease of tail tension, visible evident slight gait awkward; 2 score, double hind limbs weak, walk difficult; 3 score, double hind limbs paralysis; 4 score, double hind limbs paralysis and fore limbs weak; 5 score, four limbs paralysis; 6 score, near death or died.

[7] = Body weight drop in EAE rat model; assay type: in vivo, Lewis rats; conditions: EAE rats, peak of attack; positive control drug, dose not given
Procedure: as §3
Experimental method: the methods for modeling and administration were the same of Experiment 7. The body weight changes of rats were recorded every day.

Question: What does the source list for CC(=O)OCC(=O)[C@@]1(O)CC[C@H]2[C@@H]3CCC4=CC(=O)C=C[C@]4(C)[C@H]3C(=O)C[C@@]21C [prednisone acetate]?
Answer: Nervous function damage score [1]: 1.36 ± 0.62 score; Bodyweight [2]: 20.52 ± 1.19 g; Myelinoclasis (LFB staining score) [3]: 0.81 ± 0.21 score; Inflammatory cell infiltration (HE staining score) [4]: 1.16 ± 0.12 score; 1L-1 content (IL-1): 0.114 ± 0.001 pg/mL; IL-6 content (IL-6): 0.124 ± 0.002 pg/mL; Oligodendroglial cells (CNPase/actin integration grey level) [5]: 1.18 ± 0.02; Nervous function damage score [6]: 1.16 ± 1.21 score; Bodyweight [7]: 198.5 ± 7.1 g
